What was measured:
Type in all cases: in vivo
Diabrotica balteata = Diabrotica balteata (corn root worm), sprayed maize sprouts; conditions: 96 h, application rate 200 ppm, L2 larvae, 4 days after infestation, read-out: effect in at least one of the two categories (mortality or growth inhibition)
Outline: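 Read-out at 4 days post-infestation: mortality and growth inhibition relative to untreated samples. Test solutions (200 ppm, from DMSO stocks) were sprayed onto agar-held maize sprouts, which after drying received 6–10 L2 larvae per well.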

Euschistus heros = Euschistus heros (neotropical brown stink bug), sprayed soybean leaves; conditions: 120 h, application rate 200 ppm, N2 nymphs, 5 days after infestation, read-out: effect in at least one of the two categories (mortality or growth inhibition)
Outline: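 Scored 5 days post-infestation versus untreated controls, for both mortality and growth inhibition: N2 nymphs placed on agar-mounted soybean leaves previously sprayed at 200 ppm with aqueous test solutions from DMSO stocks and left to dry.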

Myzus persicae = Myzus persicae (green peach aphid): feeding/contact activity; conditions: 144 h, application rate 200 ppm, aphid population of mixed ages, 6 days after infestation, read-out: mortality
Method: (§1) Sunflower leaf discs were placed onto agar in a 24-well microtiter plate and sprayed with aqueous test solutions prepared from 10'000 ppm DMSO stock solutions. After drying, the leaf discs were infested with an aphid population of mixed ages. The samples were assessed for mortality 6 days after infestation.

Plutella xylostella = Plutella xylostella (diamond back moth), artificial diet; conditions: 120 h, application rate 200 ppm, L2 larvae, 5 days after infestation, read-out: effect in at least one of the two categories (mortality or growth inhibition)
Outline: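 L2 larvae (10-15 per well) fed on compound-treated, dried artificial diet; test solutions diluted in water from 10'000 ppm DMSO stocks. Readout 5 days post-infestation as mortality or growth inhibition versus untreated diet, with at least 80% effect at 200 ppm as threshold.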

Spodoptera littoralis [1] = test: Spodoptera littoralis (Egyptian cotton leaf worm), sprayed cotton leaf discs; conditions: foliar, 72 h, application rate 200 ppm, L1 larvae, 3 days after infestation, read-out: control (mortality, anti-feeding effect, growth inhibition)
Outline: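 Five first-instar larvae placed on dried cotton leaf discs (on agar) previously sprayed with aqueous dilutions of 10'000 ppm DMSO stocks. Scored at 3 days against untreated discs for mortality, feeding inhibition and growth inhibition; any category above untreated counts as control.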

Spodoptera littoralis [2] = test: Spodoptera littoralis (Egyptian cotton leaf worm), uptake by lettuce roots from agar; conditions: 144 h, read-out: effect in at least one of the three categories (mortality, anti-feeding, or growth inhibition)
Outline: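 Systemic test: Spodoptera eggs placed on lettuce leaves from seedlings raised 7 days on agar containing the compound (diluted from 10'000 ppm DMSO stock). Six days after infestation, larvae scored against untreated controls for mortality, feeding deterrence and growth inhibition.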

Tetranychus urticae = Tetranychus urticae (two-spotted spider mite): feeding/contact activity; conditions: 192 h, application rate 200 ppm, mixed population (mobile stages), 8 days after infestation, read-out: mortality
Method: Bean leaf discs on agar in 24-well microtiter plates were sprayed with aqueous test solutions prepared from 10'000 ppm DMSO stock solutions. After drying the leaf discs were infested with a mite population of mixed ages. The samples were assessed for mortality on mixed population (mobile stages) 8 days after infestation.

Thrips tabaci = Thrips tabaci (onion thrips): feeding/contact activity; conditions: 144 h, application rate 200 ppm, Thrips population of mixed ages, 6 days after infestation, read-out: mortality
Method: as §1, with “on” for “onto”, “in” for “in a”, “plates” for “plate”, “drying” for “drying,”, “a Thrips” for “an aphid”

CN(C)S(=O)(=O)N1C[C@@H](NC(=O)c2ccc(C3=NO[C@@](c4cc(Cl)c(Cl)c(Cl)c4)(C(F)(F)F)C3)cc2Cl)CO1 [Compound A109, 2-chloro-N-[(4R)-2-(dimethylsulfamoyl)isoxazolidin-4-yl]-4-[(5S)-5-(3,4,5-trichlorophenyl)-5-(trifluoromethyl)-4H-isoxazol-3-yl]benzamide]
≥ 80%: percent effect (mortality or growth inhibition) at 200 ppm (Diabrotica balteata) | percent effect (mortality or growth inhibition) at 200 ppm (Euschistus heros) | mortality at 200 ppm (Myzus persicae) | percent effect (mortality or growth inhibition) at 200 ppm (Plutella xylostella) | mortality at 200 ppm (Spodoptera littoralis [1]) | percent control (mortality, anti-feedant effect or growth inhibition) at 12.5 ppm (Spodoptera littoralis [2]) | mortality at 200 ppm (Tetranychus urticae) | mortality at 200 ppm (Thrips tabaci)

CCS(=O)(=O)N1C[C@@H](NC(=O)c2ccc(C3=NO[C@@](c4cc(Cl)c(Cl)c(Cl)c4)(C(F)(F)F)C3)cc2C)CO1 [Compound A118]
≥ 80%: percent effect (mortality or growth inhibition) at 200 ppm (Diabrotica balteata) | percent effect (mortality or growth inhibition) at 200 ppm (Euschistus heros) | mortality at 200 ppm (Myzus persicae) | percent effect (mortality or growth inhibition) at 200 ppm (Plutella xylostella) | mortality at 200 ppm (Spodoptera littoralis [1]) | percent control (mortality, anti-feedant effect or growth inhibition) at 12.5 ppm (Spodoptera littoralis [2]) | mortality at 200 ppm (Tetranychus urticae) | mortality at 200 ppm (Thrips tabaci)

Cc1cc(C2=NOC(c3ccc(Cl)c(Cl)c3)(C(F)(F)F)C2)ccc1C(=O)NC1CON(S(C)(=O)=O)C1 (centres unmarked) [Compound A66]
≥ 80%: percent effect (mortality or growth inhibition) at 200 ppm (Diabrotica balteata) | percent effect (mortality or growth inhibition) at 200 ppm (Euschistus heros) | mortality at 200 ppm (Myzus persicae) | percent effect (mortality or growth inhibition) at 200 ppm (Plutella xylostella) | mortality at 200 ppm (Spodoptera littoralis [1]) | percent effect (mortality, anti-feeding or growth inhibition) at 12.5 ppm (Spodoptera littoralis [2]; test rate 12.5 ppm, eggs, 6 days after infestation) | mortality at 200 ppm (Tetranychus urticae) | mortality at 200 ppm (Thrips tabaci)

CNS(=O)(=O)N1C[C@@H](NC(=O)c2ccc(C3=NO[C@@](c4cc(Cl)c(F)c(Cl)c4)(C(F)(F)F)C3)cc2C)CO1 [Compound A137, 4-[(5S)-5-(3,5-dichloro-4-fluoro-phenyl)-5-(trifluoromethyl)-4H-isoxazol-3-yl]-2-methyl-N-[(4R)-2-(methylsulfamoyl)isoxazolidin-4-yl]benzamide]
≥ 80%: percent effect (mortality or growth inhibition) at 200 ppm (Diabrotica balteata) | percent effect (mortality or growth inhibition) at 200 ppm (Euschistus heros) | mortality at 200 ppm (Myzus persicae) | percent effect (mortality or growth inhibition) at 200 ppm (Plutella xylostella) | mortality at 200 ppm (Spodoptera littoralis [1]) | percent control (mortality, anti-feedant effect or growth inhibition) at 12.5 ppm (Spodoptera littoralis [2]) | mortality at 200 ppm (Tetranychus urticae) | mortality at 200 ppm (Thrips tabaci)

CS(=O)(=O)N1CC(NC(=O)c2ccc(C3=NO[C@@](c4cc(Cl)c(F)c(Cl)c4)(C(F)(F)F)C3)cc2Cl)CO1 (stereo partly drawn) [Compound A19, 2-chloro-4-[(5S)-5-(3,5-dichloro-4-fluoro-phenyl)-5-(trifluoromethyl)-4H-isoxazol-3-yl]-N-(2-methylsulfonylisoxazolidin-4-yl)benzamide]
≥ 80%: percent effect (mortality or growth inhibition) at 200 ppm (Diabrotica balteata) | percent effect (mortality or growth inhibition) at 200 ppm (Euschistus heros) | mortality at 200 ppm (Myzus persicae) | percent effect (mortality or growth inhibition) at 200 ppm (Plutella xylostella) | mortality at 200 ppm (Spodoptera littoralis [1]) | percent control (mortality, anti-feedant effect or growth inhibition) at 12.5 ppm (Spodoptera littoralis [2]) | mortality at 200 ppm (Tetranychus urticae) | mortality at 200 ppm (Thrips tabaci)

Cc1cc(C2=NO[C@@](c3cc(Cl)c(Cl)c(Cl)c3)(C(F)(F)F)C2)ccc1C(=O)NC1CON(S(N)(=O)=O)C1 (some centres unmarked) [Compound A35]
≥ 80%: percent effect (mortality or growth inhibition) at 200 ppm (Diabrotica balteata) | percent effect (mortality or growth inhibition) at 200 ppm (Euschistus heros) | mortality at 200 ppm (Myzus persicae) | percent effect (mortality or growth inhibition) at 200 ppm (Plutella xylostella) | mortality at 200 ppm (Spodoptera littoralis [1]) | percent control (mortality, anti-feedant effect or growth inhibition) at 12.5 ppm (Spodoptera littoralis [2]) | mortality at 200 ppm (Tetranychus urticae) | mortality at 200 ppm (Thrips tabaci)

CCN(CC)S(=O)(=O)N1CC(NC(=O)c2ccc(C3=NO[C@@](c4cc(Cl)c(F)c(Cl)c4)(C(F)(F)F)C3)cc2C)CO1 (stereo partly drawn) [Compound A98, 4-[(5S)-5-(3,5-dichloro-4-fluoro-phenyl)-5-(trifluoromethyl)-4H-isoxazol-3-yl]-N-[2-(diethylsulfamoyl)isoxazolidin-4-yl]-2-methyl-benzamide]
≥ 80%: percent effect (mortality or growth inhibition) at 200 ppm (Diabrotica balteata) | percent effect (mortality or growth inhibition) at 200 ppm (Euschistus heros) | mortality at 200 ppm (Myzus persicae) | percent effect (mortality or growth inhibition) at 200 ppm (Plutella xylostella) | mortality at 200 ppm (Spodoptera littoralis [1]) | percent control (mortality, anti-feedant effect or growth inhibition) at 12.5 ppm (Spodoptera littoralis [2]) | mortality at 200 ppm (Tetranychus urticae) | mortality at 200 ppm (Thrips tabaci)

CS(=O)(=O)N1C[C@@H](NC(=O)c2ccc(C3=NO[C@@](c4cc(Cl)c(Cl)c(Cl)c4)(C(F)(F)F)C3)cc2Cl)CO1 [Compound A145]
≥ 80%: percent effect (mortality or growth inhibition) at 200 ppm (Diabrotica balteata) | percent effect (mortality or growth inhibition) at 200 ppm (Euschistus heros) | mortality at 200 ppm (Myzus persicae) | percent effect (mortality or growth inhibition) at 200 ppm (Plutella xylostella) | mortality at 200 ppm (Spodoptera littoralis [1]) | percent control (mortality, anti-feedant effect or growth inhibition) at 12.5 ppm (Spodoptera littoralis [2]) | mortality at 200 ppm (Tetranychus urticae) | mortality at 200 ppm (Thrips tabaci)

Cc1cc(C2=NOC(c3cc(Cl)cc(Cl)c3)(C(F)(F)F)C2)ccc1C(=O)NC1CON(S(C)(=O)=O)C1 (centres unmarked) [Compound A33, 4-[5-(3,5-dichlorophenyl)-5-(trifluoromethyl)-4H-isoxazol-3-yl]-2-methyl-N-(2-methylsulfonylisoxazolidin-4-yl)benzamide]
≥ 80%: percent effect (mortality or growth inhibition) at 200 ppm (Diabrotica balteata) | percent effect (mortality or growth inhibition) at 200 ppm (Euschistus heros) | mortality at 200 ppm (Myzus persicae) | percent effect (mortality or growth inhibition) at 200 ppm (Plutella xylostella) | mortality at 200 ppm (Spodoptera littoralis [1]) | percent control (mortality, anti-feedant effect or growth inhibition) at 12.5 ppm (Spodoptera littoralis [2]) | mortality at 200 ppm (Tetranychus urticae) | mortality at 200 ppm (Thrips tabaci)

CCNS(=O)(=O)N1CC(NC(=O)c2ccc(C3=NO[C@@](c4cc(Cl)c(F)c(Cl)c4)(C(F)(F)F)C3)cc2C)CO1 (some centres unmarked) [Compound A95]
≥ 80%: percent effect (mortality or growth inhibition) at 200 ppm (Diabrotica balteata) | percent effect (mortality or growth inhibition) at 200 ppm (Euschistus heros) | mortality at 200 ppm (Myzus persicae) | percent effect (mortality or growth inhibition) at 200 ppm (Plutella xylostella) | mortality at 200 ppm (Spodoptera littoralis [1]) | percent control (mortality, anti-feedant effect or growth inhibition) at 12.5 ppm (Spodoptera littoralis [2]) | mortality at 200 ppm (Tetranychus urticae) | mortality at 200 ppm (Thrips tabaci)

CCS(=O)(=O)N1C[C@@H](NC(=O)c2ccc(C3=NO[C@@](c4cc(Cl)c(F)c(Cl)c4)(C(F)(F)F)C3)cc2Cl)CO1 [Compound A146]
≥ 80%: percent effect (mortality or growth inhibition) at 200 ppm (Diabrotica balteata) | percent effect (mortality or growth inhibition) at 200 ppm (Euschistus heros) | mortality at 200 ppm (Myzus persicae) | percent effect (mortality or growth inhibition) at 200 ppm (Plutella xylostella) | mortality at 200 ppm (Spodoptera littoralis [1]) | percent control (mortality, anti-feedant effect or growth inhibition) at 12.5 ppm (Spodoptera littoralis [2]) | mortality at 200 ppm (Tetranychus urticae) | mortality at 200 ppm (Thrips tabaci)

CCNS(=O)(=O)N1C[C@@H](NC(=O)c2ccc(C3=NO[C@@](c4cc(Cl)cc(C(F)(F)F)c4)(C(F)(F)F)C3)cc2Cl)CO1 [Compound A128]
≥ 80%: percent effect (mortality or growth inhibition) at 200 ppm (Diabrotica balteata) | percent effect (mortality or growth inhibition) at 200 ppm (Euschistus heros) | mortality at 200 ppm (Myzus persicae) | percent effect (mortality or growth inhibition) at 200 ppm (Plutella xylostella) | mortality at 200 ppm (Spodoptera littoralis [1]) | percent control (mortality, anti-feedant effect or growth inhibition) at 12.5 ppm (Spodoptera littoralis [2]) | mortality at 200 ppm (Tetranychus urticae) | mortality at 200 ppm (Thrips tabaci)

Cc1cc(C2=NO[C@@](c3cc(Cl)c(Cl)c(Cl)c3)(C(F)(F)F)C2)ccc1C(=O)NC1CON(S(=O)(=O)N(C)CC#N)C1 (stereo partly drawn) [Compound A87, N-[2-[cyanomethyl(methyl)sulfamoyl]isoxazolidin-4-yl]-2-methyl-4-[(5S)-5-(3,4,5-trichlorophenyl)-5-(trifluoromethyl)-4H-isoxazol-3-yl]benzamide]
≥ 80%: percent effect (mortality or growth inhibition) at 200 ppm (Diabrotica balteata) | percent effect (mortality or growth inhibition) at 200 ppm (Euschistus heros) | mortality at 200 ppm (Myzus persicae) | percent effect (mortality or growth inhibition) at 200 ppm (Plutella xylostella) | mortality at 200 ppm (Spodoptera littoralis [1]) | percent control (mortality, anti-feedant effect or growth inhibition) at 12.5 ppm (Spodoptera littoralis [2]) | mortality at 200 ppm (Tetranychus urticae) | mortality at 200 ppm (Thrips tabaci)

From US10588317B2, “Isoxazoline-substituted benzamides and analogues as insecticides” (priority 2015, dated 2020)
